Patent US5246945A, “Piperidine derivatives” (Nisshin Flour Milling Co., Ltd., priority 1991, dated 1993)

Test system: 5-HT3 receptors
Assay: Antagonism of 5-HT at 5-HT3 receptors: inhibition of 5-HT-induced bradycardia (von Benzold Jarisch Reflex) in anesthesized rats
Assay type: in vivo, rat
Settings: 100 μg/kg, i.v. (intrajugular); 5-HT 30 μg/kg given 5 min. later; urethane-anesthesized rats; tested as hydrochloride except Example 9
Protocol: The compounds prepared in the above examples were respectively tested for antagonism of 5-HT at 5-HT3 receptors.
Administration of 5-HT (serotonin) to anesthesized rats via jugular vein induces temporary bradycardia (von Benzold Jarisch Reflex)(A.S. Paintal, Physiol. Rev., 53, 159-227 (1973)).
Thus, rats were anesthesized with urethane (1 g/kg, i.p.) and recorded for blood pressure and heart rate from left femoral artery. Percent inhibition was calculated from bradycardia induced by 5-HT (30 μg/kg) given 5 min. following intrajugular administration of a compound of the invention, taking the bradycardia induced by the intrajugular administration of 5-HT.
In this test, all of the test compounds were tested in the form of hydrochloride except for the compounds prepared in Example 9. Therefore, concentration of the test drug is expressed in terms of the concentration of the hydrochloride except for the compounds prepared in Example 9.

Row | SMILES | % Inhibition (of bradycardia induced by 5-HT) [%]
1 | Cn1nc(C(=O)OCC2CCCC[N+]2(C)C)c2ccccc21 (stereo not shown) [Example 9, 1,1-Dimethyl-2-(1-methyl-3-indazolylcarboxymethyl)-piperidinium iodide] | 58
2 | COc1ccc2ncc(C(=O)OCC3CCCCN3C)cc2c1 (stereo not shown) [Example 3] | 26
3 | COc1cc(N)c(Cl)cc1C(=O)OC(C)C1CCCCN1C (single isomer, unassigned) [7 (less polar isomer), (1-Methyl-Z-piperidyl)ethyl 2-methoxy-4 amino-5-chlorobenzoate] | 50
4 | CN1CCCCC1COC(=O)c1nn(C)c2ccccc12 (stereo not shown) [Example 2, 1-Methyl-2-piperidylmethyl 1-methylindazole-3-carboxylate] | 34
5 | COc1cc(N)ccc1C(=O)OC(C)C1CCCCN1C (single isomer, unassigned) [5 (more polar isomer), 1-(1-Methyl-2-piperidyl)ethyl 2-methoxy-4-aminobenzoate] | 16
6 | COc1cc(N)c(Cl)cc1C(=O)OCC1CCCCN1C (stereo not shown) [Example 6, 1-Methyl-2-piperidylmethyl 2-methoxy-4-amino-5-chlorobenzoate] | 76
7 | CC(OC(=O)c1nn(C)c2ccccc12)C1CCCCN1C (single isomer, unassigned) [1 (less polar isomer), 1-(1-Methyl-2-piperidyl)ethyl 1-methylindazole-3-carboxylate] | 49
